From PubChem BioAssay AID608 (Sanford-Burnham Center for Chemical Genomics, 2007) come the findings set out here.

Molecules are shown by their SMILES. pKd: −log10 of the molar value. Activity calls are given as the source filed them. How the calls were made is not given here.

Peptidyl-prolyl cis-trans isomerase FKBP1A (Homo sapiens), sequence (P62942 whole entry, looked up): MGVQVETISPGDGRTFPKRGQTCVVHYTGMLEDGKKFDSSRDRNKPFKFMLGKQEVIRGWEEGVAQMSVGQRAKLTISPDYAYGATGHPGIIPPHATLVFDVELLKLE

This assay has as its target Peptidyl-prolyl cis-trans isomerase FKBP1A (Homo sapiens) (UniProt P62942). Kind of assay: small-molecule binding to FKBP12 – biophysical, NMR detection (AID 608). The settings on record: purified FKBP12.
As to `CCOC(=O)N1CCCC1c1cccnc1` (stereo unspecified), the Kd is > 4 mM (inactive).
With `O=C(Nc1ccccc1Cl)c1cnccn1`, the Kd was > 4 mM (inactive).
With `CC(C)(C)CC(=O)N1CCC(C(N)=O)CC1`, the Kd is > 4 mM (inactive).
On to `O=C(NC1CC1)c1ccccc1[N+](=O)[O-]`, for which the Kd is > 4 mM (inactive).
Take `O=C(O)/C=C/C=C/c1ccccc1`: the Kd was > 4 mM (inactive).
As to `O=C1CSC(=Nc2cc(Cl)ccc2Cl)N1`, the Kd was > 4 mM (inactive).
Consider `NC(=O)CN1C(=O)c2cccc3cccc1c23`, for which the Kd was > 4 mM (inactive).
Take `CC(C)CCCC(C)[C@H]1CCC2C3CC=C4C[C@@H](O)CC[C@]4(C)C3CC[C@@]21C` (stereo partly specified): the Kd is > 4 mM (inactive).
As to `CC(=O)Oc1ccc(N2C(=O)C3C4C=CC(O4)C3C2=O)cc1` (stereo unspecified), the Kd was > 4 mM (inactive).
As to `NC(=O)c1ccccc1N1CCCCC1`, the Kd was > 4 mM (inactive).
On the same count and under the same terms, with `CCOC(=O)C1CCN(Cc2ccccc2)CC1` the figure was > 4 mM (inactive); with `CC1=CC2C(C(C)C)CCC(C)(O)C2CC1` (stereo unspecified), > 4 mM (inactive).
With `CCSc1n[nH]c(=O)[nH]c1=O`, the Kd is > 4 mM (inactive).
Take `O=C(O)c1ccccc1C(=O)NCC1CCCO1` (stereo unspecified): the Kd is > 4 mM (inactive).
In the case of `O=C(NCCCO)c1ccncc1`, the Kd was > 4 mM (inactive).
As to `NC(=O)Cn1cnc2c(cnn2-c2ccccc2)c1=O`, the Kd was > 4 mM (inactive).
As for `CC1CN(C(=O)c2sc3cccc(F)c3c2Cl)CC(C)O1` (stereo unspecified), the Kd is > 13.6 mM (inactive).
With `O=C1NC(=O)C(c2ccccc2)C(=O)N1`, the Kd was > 4 mM (inactive).
Consider `CC(C)=NNC(=O)C(=O)NC(C)(C)C`, for which the Kd was > 4 mM (inactive).
Turning to `CN(c1ccccc1C(=O)N1CCCC1)S(C)(=O)=O`, the Kd is > 4 mM (inactive).
For the compound `COC(=O)CC1=Nc2ccccc2NC(=O)C1`, the Kd is > 4 mM (inactive).
Turning to `Cc1cc2c(nn1)CCc1nonc1-2`, the Kd is > 4 mM (inactive).
On to `COc1ccc(-c2coc3cc(OC)cc(OC)c3c2=O)cc1`, for which the Kd is > 4 mM (inactive).
Turning to `CCCCCCCCCCCCCCCCCCOCC(O)CO` (stereo unspecified), the Kd was > 4 mM (inactive).
Consider `CC1(C)C=CC(=O)[C@@]2(C)C1CC(=O)[C@]1(C)C2CC[C@@]2(C)[C@H](c3ccoc3)OC(=O)C3OC321` (stereo partly specified), for which the Kd was > 4 mM (inactive).
Consider `CC(C)=CC(=O)Nc1ccccc1Br`, for which the Kd is > 4 mM (inactive).
Still for that read-out and setting: with `NCCC(=O)N[C@@H](Cc1cnc[nH]1)C(=O)O` the figure was > 4 mM (inactive).
With `COC(=O)C[C@H]1C(C)(C)C(=O)[C@@H]2CC3C4=CC(=O)O[C@@H](c5ccoc5)[C@]4(C)CCC3C1(C)C2=O` (stereo partly specified), the Kd was > 4 mM (inactive).
With `OCc1ccc2c(c1)OCCO2`, the Kd is > 4 mM (inactive).
With `COc1cc2c(cc1O)CC1c3c(cc(O)c(OC)c3-2)CCN1C` (stereo unspecified), the Kd was > 4 mM (inactive).
For `CCOC(=O)c1ccc2c(c1)nnn2C`, the Kd was > 4 mM (inactive).
Consider `CC(=O)Nc1ccn(-c2ccccc2)n1`, for which the Kd is > 4 mM (inactive).
As for `c1cc(CNc2ccc3c(c2)OCCO3)ccn1`, the Kd is > 4 mM (inactive).
Consider `O=C1C2CCCCC2C(=O)N1Cc1cccnc1` (stereo unspecified), for which the Kd was > 4 mM (inactive).
`c1ccc(CCc2nc(-c3ccncc3)no2)cc1`: the Kd was > 4 mM (inactive).
Turning to `CCN1C[C@@]2(COC)C3[C@@H](OC)[C@H]4[C@@H]1[C@]3(C(OC)C[C@H]2O)C1C[C@@]2(O)[C@H](OC(=O)c3ccccc3)C1[C@]4(OC(C)=O)[C@@H](O)[C@@H]2OC` (stereo partly specified), the Kd is > 4 mM (inactive).
In the case of `Cc1ccccc1OCC(=O)O`, the Kd was > 4 mM (inactive).
Consider `O=c1oc2ccccc2cc1O`, for which the Kd is > 4 mM (inactive).
As to `Nc1cccc(CC(=S)N2CCOCC2)c1`, the Kd was > 4 mM (inactive).
On to `Nc1c(N2CCCC2)cnn(-c2ccccc2)c1=O`, for which the Kd is > 4 mM (inactive).
In the case of `C=CC(C1=CC(=O)C=CC1=O)c1ccccc1` (stereo unspecified), the Kd was > 4 mM (inactive).
In the case of `O=C1C=C(O)c2ccccc2C1=O`, the Kd was > 4 mM (inactive).
Turning to `NC(=O)CN1CC(c2ccccc2)CC1=O` (stereo unspecified), the Kd is > 4 mM (inactive).
Still for that read-out and setting: with `CC(C)NC(=O)Cc1c(O)c2ccccc2[nH]c1=O` the figure was > 4 mM (inactive).
`Cc1nnsc1C(=O)Nc1ccccn1`: the Kd is > 4 mM (inactive).
For the compound `O=C(Nc1cccc(Cl)c1)c1ccncc1`, the Kd was > 4 mM (inactive).
As to `CC(=O)O[C@@H]1CC2C(C)(C)[C@H](O)C=C[C@]2(C)C2CC[C@@]3(C)[C@H](c4ccoc4)OC(=O)C4OC43[C@@]21C` (stereo partly specified), the Kd is > 4 mM (inactive).
`COC(=O)C1=C(C)N(c2cccc(C(C)=O)c2)C(=O)C1`: the Kd was > 4 mM (inactive).
On the same count and under the same terms, with `CSc1ccc2nnc(-c3cccnc3)n2n1` the figure was > 4 mM (inactive); with `COC(=O)c1scc(C)c1N`, > 4 mM (inactive).
Same read-out and setting: with `COc1cc(C(C)=O)cc(OC)c1O` the figure was > 4 mM (inactive); with `FC(F)(F)c1cc(-c2ccco2)nc(N2CCOCC2)n1`, > 4 mM (inactive).
Regarding `Cc1cc(C)n(-c2cccc3cccnc23)n1`, the Kd is > 4 mM (inactive).
As for `O=C1c2cccnc2C(=O)N1Cc1ccc2c(c1)OCO2`, the Kd is > 4 mM (inactive).
As to `O=C(O)c1ccc2sccc2c1`, the Kd was > 4 mM (inactive).
`CN1CCC(NC(=O)Cc2c(F)cccc2Cl)CC1`: the Kd is > 4 mM (inactive).
Take `Cc1nnc(NCCO)[nH]c1=O`: the Kd was > 4 mM (inactive).
On the same count and under the same terms, with `Cc1ccc(N)nc1` the figure was > 4 mM (inactive); with `COc1ccc2c(c1)O[C@H]1c3ccc(OC)cc3OC[C@@H]21`, > 4 mM (inactive); with `CCc1sc(C(=O)NC)cc1Br`, > 4 mM (inactive).
With `O=C(O)c1cccc(O)c1O`, the Kd is > 4 mM (inactive).
As for `O=C(Nc1ccc(OCC(=O)N2CCOCC2)cc1)c1ccccc1F`, the Kd entry is “inactive”.
On the same count and under the same terms, with `Nc1cc(C(=O)N2CCCC2)cc(C(=O)N2CCCC2)c1` the figure was > 4 mM (inactive); with `Cn1nc(C(=O)NCc2cccnc2)c2ccccc2c1=O`, > 4 mM (inactive); with `COc1cccc(-c2nc3ccc(O)cc3c(=O)o2)c1`, > 4 mM (inactive).
With `Clc1ccccc1OCc1nc(-c2ccccn2)no1`, the Kd is > 4 mM (inactive).
The same measure, in the same setting: with `N#Cc1ccccc1Cn1c(-c2cscn2)nc2ccccc21` the entry was “inactive”; with `N#Cc1ccccc1CSc1ccccn1`, > 4 mM (inactive); with `Cc1ccc(C)c(C(=O)NCc2ccncc2)c1`, > 4 mM (inactive).
As to `CC(=O)Nc1ccc(CN2CCOCC2)cc1`, the Kd is > 4 mM (inactive).
As to `O=C(Nc1nc2c(s1)CCCC2)c1cccnc1`, the Kd is > 4 mM (inactive).
On the same count and under the same terms, with `Cc1cc(OCC(=O)N2CCOCC2)c(C(C)C)cc1Cl` the entry was “inactive”.
The same measure, in the same setting: with `CC1=C/C(=C\c2c(O)[nH]c(=O)[nH]c2=O)C(C)=N1` the figure was > 4 mM (inactive).
For the compound `CN(C)C(=O)CSc1cccc2cccnc12`, the Kd was > 4 mM (inactive).
Consider `Fc1ccc(Cn2c(-c3cscn3)nc3ccccc32)c(Cl)c1`, for which the Kd entry is “inactive”.
Regarding `COC(=O)c1cccc2cc[nH]c12`, the Kd was > 4 mM (inactive).
On the same count and under the same terms, with `COc1cnn(-c2ccccc2)c(=O)c1N(C)C` the figure was > 4 mM (inactive); with `Cn1c(NCc2ccccc2O)nc2ccccc21`, > 4 mM (inactive).
The same measure, in the same setting: with `Nc1ccc(-n2cncn2)cc1` the figure was > 4 mM (inactive); with `Clc1ccc2c(N3CCNCC3)ccnc2c1`, > 4 mM (inactive).
Consider `O=C1CCCC(=O)N1c1ccc(O)cc1`, for which the Kd is > 4 mM (inactive).
`Cc1cc(C(=O)Nc2ccc3c(c2)OCO3)cs1`: the Kd is > 4 mM (inactive).
Take `Nc1ncnc2c1ncn2[C@@H]1O[C@H](CO)[C@@H](O)[C@H]1O`: the Kd was > 4 mM (inactive).
As to `O=C(O)c1ccc2occc2c1`, the Kd is > 4 mM (inactive).
For `CC(C)(C)c1ccc(SCC(N)=O)cc1`, the pKd was 3.34.
Regarding `CC(=O)Nc1ccc(C(=O)NC2CCSC2=O)cc1` (stereo unspecified), the Kd is > 4 mM (inactive).
Still for that read-out and setting: with `NC12CC3CC(C1)CC(C(=O)O)(C3)C2` the figure was > 4 mM (inactive).
Consider `O=C(O)Cc1csc(-c2ccccc2)n1`, for which the Kd was > 4 mM (inactive).
Consider `FC(F)(F)c1nnc2ccc(N3CCOCC3)nn12`, for which the Kd was > 4 mM (inactive).
With `CC(C)=CCOc1c2occc2cc2ccc(=O)oc12`, the Kd is > 4 mM (inactive).
With `CCC1(CC)C(=O)N=C(N)NC1=O`, the Kd was > 4 mM (inactive).
For `CC(=O)Nc1cccc(N(C)S(C)(=O)=O)c1`, the Kd was > 4 mM (inactive).
As for `COc1ccc(C)cc1-n1c(-c2ccncc2)n[nH]c1=S`, the Kd is > 4 mM (inactive).
With `Cc1nc(-c2ccccc2)sc1C(N)=O`, the Kd is > 4 mM (inactive).
As to `O=c1[nH]c(N2CCOCC2)nc2ccccc12`, the Kd was > 4 mM (inactive).
For `Cc1cc(=O)n2nc(-c3ccccc3)sc2n1`, the Kd is > 4 mM (inactive).
Consider `Cc1nn(C)c(Cl)c1S(=O)(=O)N1CCOCC1`, for which the Kd is > 4 mM (inactive).
For the compound `Cc1cc(OCC(=O)N2CC(C)OC(C)C2)cc(C)c1Cl` (stereo unspecified), the Kd was > 4 mM (inactive).
Take `CCOC(=O)c1c(C)cc(O)c(C)c1O`: the Kd is > 4 mM (inactive).
Take `Nc1nc(-c2ccccc2)ns1`: the Kd is > 4 mM (inactive).
As for `CSc1ncnc2nc[nH]c12`, the Kd is > 4 mM (inactive).
`CCOC(=O)c1c[nH]c2c(F)cccc2c1=O`: the Kd was > 4 mM (inactive).
On to `O=C1CNC(=O)N1Cc1ccc(Br)cc1`, for which the Kd is > 4 mM (inactive).
For `Cc1cc(N2CCN(C)CC2)ncn1`, the Kd is > 4 mM (inactive).
The same measure, in the same setting: with `C=CCn1c(=S)[nH]c2ccc(Br)cc2c1=O` the figure was > 4 mM (inactive); with `NC(=O)C(=O)Nc1nc(-c2ccccc2)cs1`, > 4 mM (inactive).

In general, Kd refers to the concentration at which binding is half-saturated. The term pKd denotes the Kd on a negative log10 scale, so that one unit is a factor of ten.
